Results: patent publication US12673052B2, “Combinations for the treatment of cancer” (Exelixis, Inc., priority 2020, dated 2026)
Where “and” joins values, the source holds several entries; their conditions need not be identical. Identical values can stand only once. Like-named read-outs stand apart in the source and are kept apart here.

Key:
MC38 tumor = assay: Tumor microvessels by CD31 staining in MC38 tumor-bearing animals; format: in vivo, murine
Method: MC38 tumor-bearing animals were treated with a range of Compound 1 doses (PO, qd; 3 mg/kg, 10 mg/kg, 30 mg/kg Compound 1) for 5 days. Tumors were analyzed for the presence of tumor microvessels by CD31 staining. FIG. 1A and FIG. 1B compare the tumor microvessels after administration of different doses of Compared 1 with vehicle.

[1] = In vitro plasma protein binding; format: in vitro ADME, human
Method: (§1) Plasma PK of Compound 1 was characterized in rats and beagle dogs. Toxicokinetic (TK) evaluations of oral Compound 1 were evaluated in repeat-dose studies in rats and dogs. Plasma protein binding was determined in mouse, rat, dog, monkey, and human plasma in vitro. Biotransformation and metabolite profiling of Compound 1 were investigated in vitro using mouse, rat, dog, monkey, and human liver microsomal fractions and hepatocytes and in vivo in rats and dogs. P-glycoprotein (P-gp) and breast cancer resistance protein (BCRP) transporter interaction studies, in vitro experiments evaluating cytochrome P450 (CYP) induction and inhibition by Compound 1, and CYP and glucuronosyltransferase (UGT) substrate specificity studies of Compound 1 were also performed.
Compound 1 (10 μM) was 97.2 and 97.5% protein bound in monkey and human plasma, respectively.

[2] = system: primary human macrophages; assay: Macrophage re-polarization: primary CD14+ monocytes cultured in M2 polarizing conditions; format: cell-based; details: donor (A, H, L, D, B), Donor A and B n = 1
Method: The TAM RTKs play an important role in balancing the functions of M1 and M2 macrophage subsets. Compound 1 was tested for inhibition against primary CD14+ monocytes cultured in M2 polarizing conditions. A dose dependent polarization of the monocytes to pro-inflammatory M1 macrophages across cells from all tested donors was observed (Table 4).

SNU-5 = assay: Tumor growth inhibition in xenograft model; format: in vivo, CB.17 SCID mice
Method: (§2) Three human tumor cell lines, NCI-H441, MDA-MB-231, and SNU-5, were selected for use in tumor xenograft studies using athymic nude, NSG and CB.17 SCID mice, respectively. Pharmacodynamic modulation of MET phosphorylation was also measured in the NCI-H441 and SNU-5 xenografts. Tumor-bearing mice were orally dosed once-daily for 14 days (qd×14), and the tumors were resected and processed for MET phosphorylation analysis by Western blot. […]

hERG channel = hERG channel (Homo sapiens, UniProt Q12809); assay: In vitro hERG channel inhibition; format: cell-based
MET = MET (Homo sapiens, UniProt P08581); assay: In vivo target modulation: MET phosphorylation by Western blot in NCI-H441 xenografts; set-up: endogenous in cells; host or cells: NCI-H441 human tumour xenografts in athymic nude mice; species or system athymic nude mice; details: for Compound 1 Plasma Exposure: qd × 14, 4 hours after last dose on Day 14
Method: as §2

[3] = Single-dose plasma PK, IV and oral (PEG 400:EtOH:RO water); format: in vivo, rats
Method: as §1
The PK and TK of Compound 1 were assessed in rats and dogs after intravenous (IV; only single dose PK) and oral (PO) administration of Compound 1 in formulations prepared in polyethylene glycol 400 (PEG 400): ethanol (EtOH): reverse osmosis water (RO Water) (45:5:50 v/v/v).
Median time to maximum plasma concentration (Tmax) occurred at approximately 2-3 hours in rats and dogs.
The mean plasma t1/2, z values were approximately 9 hours in rats and 4 hours in dogs. Interspecies scaling based on body weight to predict PK parameters in humans could not be performed because dogs (larger species) cleared Compound 1 faster than rats (smaller species). Therefore, the human PK was projected based on one species (rat). […] This apparent clearance value (CL/F) was used to predict steady-state exposure (AUC and average plasma concentration [Cavg]) in humans for the proposed first-in-human (FIH) starting dose for Study Compound 1-001.

CYP2C19 = assay: Cytochrome P450 induction (mRNA levels) in fresh primary human hepatocytes; format: in vitro ADME
CYP2B6 = assay: as above; format: in vitro ADME
[4] = system: primary human macrophages; assay: Efferocytosis: primary human macrophages cultured with apoptotic Jurkat cells; format: cell-based; details: read-out: Cellular IC50 (nM) (n = 2); one row per donor (#1-#5); geometric mean +/− geometric standard deviation
Method: In addition, the TAM RTKs are critical in the process of efferocytosis, or the recognition and phagocytosis of apoptotic cells that maintains normal tissue homeostasis. When efferocytosis is inhibited, macrophages engage a proinflammatory activation response. When primary human macrophages are cultured with apoptotic Jurkat cells in the presence of Compound 1, their phagocytic ability was inhibited in a dose dependent manner. In Table 5, the IC50 from 5 independent donors are listed.

[5] = Liver microsomal stability assay; format: in vitro ADME, rat; details: liver microsomes
Method: In the liver microsomal stability assay, CLint was 0.601 mL/min/g liver in mouse, 0.563 mL/min/g liver in rat, 0.315 mL/min/g liver in dog, 0.734 mL/min/g liver in monkey, and 0.639 mL/min/g liver in human. In the hepatocyte stability assay, Compound 1 CLint was 0.373 mL/min/g liver in mouse, 0.285 mL/min/g liver in rat, 1.08 mL/min/g liver in dog, 0.533 mL/min/g liver in monkey, and 0.317 mL/min/g liver in human.

[6] = NCI-H441, mouse, po, read-out: p-MET Inhibition %
[7] = human, fresh primary human hepatocytes, mRNA induction, read-out: half-maximal effective concentration (EC50)

Sequence of MET (P08581 25-1390): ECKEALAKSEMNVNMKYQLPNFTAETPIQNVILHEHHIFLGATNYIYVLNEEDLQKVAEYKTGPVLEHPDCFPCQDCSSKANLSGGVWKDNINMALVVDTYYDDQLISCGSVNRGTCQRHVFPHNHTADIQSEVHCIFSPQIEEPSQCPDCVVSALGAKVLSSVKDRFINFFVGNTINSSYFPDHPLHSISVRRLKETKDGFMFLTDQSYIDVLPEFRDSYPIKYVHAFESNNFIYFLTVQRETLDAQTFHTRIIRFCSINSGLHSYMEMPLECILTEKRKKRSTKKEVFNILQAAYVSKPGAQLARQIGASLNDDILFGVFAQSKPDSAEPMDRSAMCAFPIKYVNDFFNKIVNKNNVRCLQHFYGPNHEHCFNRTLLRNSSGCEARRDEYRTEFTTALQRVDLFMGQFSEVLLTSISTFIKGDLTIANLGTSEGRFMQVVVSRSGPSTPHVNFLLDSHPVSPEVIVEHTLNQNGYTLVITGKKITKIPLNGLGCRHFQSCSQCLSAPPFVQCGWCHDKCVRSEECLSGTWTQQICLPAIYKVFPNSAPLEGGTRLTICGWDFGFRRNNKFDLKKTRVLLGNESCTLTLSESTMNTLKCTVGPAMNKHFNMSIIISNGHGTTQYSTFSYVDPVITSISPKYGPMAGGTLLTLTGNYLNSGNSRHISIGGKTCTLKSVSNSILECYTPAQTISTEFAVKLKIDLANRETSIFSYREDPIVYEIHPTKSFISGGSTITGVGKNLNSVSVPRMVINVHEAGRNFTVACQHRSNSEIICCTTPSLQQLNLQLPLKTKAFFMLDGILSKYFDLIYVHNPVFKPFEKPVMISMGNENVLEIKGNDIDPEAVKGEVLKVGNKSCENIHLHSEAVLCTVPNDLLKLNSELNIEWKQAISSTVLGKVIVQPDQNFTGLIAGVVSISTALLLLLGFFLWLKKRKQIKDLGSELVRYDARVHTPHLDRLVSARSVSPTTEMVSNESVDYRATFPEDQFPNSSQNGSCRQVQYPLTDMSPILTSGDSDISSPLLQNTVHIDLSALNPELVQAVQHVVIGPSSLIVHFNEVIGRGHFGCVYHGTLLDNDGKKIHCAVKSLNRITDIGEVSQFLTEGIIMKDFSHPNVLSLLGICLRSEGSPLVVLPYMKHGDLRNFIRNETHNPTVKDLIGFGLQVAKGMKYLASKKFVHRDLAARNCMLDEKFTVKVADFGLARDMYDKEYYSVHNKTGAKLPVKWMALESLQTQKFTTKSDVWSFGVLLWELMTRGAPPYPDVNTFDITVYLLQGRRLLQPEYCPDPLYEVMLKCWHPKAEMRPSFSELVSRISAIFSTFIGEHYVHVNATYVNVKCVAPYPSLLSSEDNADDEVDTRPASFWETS
Sequence of hERG channel (Q12809 whole entry): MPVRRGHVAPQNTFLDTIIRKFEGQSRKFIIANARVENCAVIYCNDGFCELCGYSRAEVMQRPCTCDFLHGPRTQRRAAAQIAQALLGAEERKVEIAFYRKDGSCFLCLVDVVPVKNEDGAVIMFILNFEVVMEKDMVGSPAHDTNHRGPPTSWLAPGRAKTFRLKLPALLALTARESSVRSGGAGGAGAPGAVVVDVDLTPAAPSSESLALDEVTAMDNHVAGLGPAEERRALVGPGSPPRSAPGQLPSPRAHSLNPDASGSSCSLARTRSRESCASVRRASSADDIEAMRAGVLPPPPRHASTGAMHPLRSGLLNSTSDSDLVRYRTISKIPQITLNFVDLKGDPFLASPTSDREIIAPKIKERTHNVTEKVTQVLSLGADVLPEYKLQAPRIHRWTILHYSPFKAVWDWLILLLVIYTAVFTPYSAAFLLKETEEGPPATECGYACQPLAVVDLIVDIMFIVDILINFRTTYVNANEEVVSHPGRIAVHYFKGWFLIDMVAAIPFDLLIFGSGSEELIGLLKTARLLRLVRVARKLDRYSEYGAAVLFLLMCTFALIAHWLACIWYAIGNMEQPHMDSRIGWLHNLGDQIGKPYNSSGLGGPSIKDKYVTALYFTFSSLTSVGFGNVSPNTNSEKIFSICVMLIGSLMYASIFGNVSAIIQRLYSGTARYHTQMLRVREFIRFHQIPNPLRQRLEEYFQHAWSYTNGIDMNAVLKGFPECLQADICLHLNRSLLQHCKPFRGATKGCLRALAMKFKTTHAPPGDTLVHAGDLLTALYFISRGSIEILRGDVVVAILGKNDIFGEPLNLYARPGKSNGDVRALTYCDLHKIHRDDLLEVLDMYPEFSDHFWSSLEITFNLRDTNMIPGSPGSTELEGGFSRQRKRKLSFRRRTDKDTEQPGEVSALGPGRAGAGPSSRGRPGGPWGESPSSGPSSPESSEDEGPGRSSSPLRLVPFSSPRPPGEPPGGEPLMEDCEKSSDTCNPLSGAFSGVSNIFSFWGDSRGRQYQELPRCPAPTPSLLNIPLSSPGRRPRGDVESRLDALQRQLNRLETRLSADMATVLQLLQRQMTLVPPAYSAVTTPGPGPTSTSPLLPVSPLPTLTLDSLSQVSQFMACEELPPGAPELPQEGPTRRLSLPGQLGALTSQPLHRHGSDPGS

CNC(=O)c1cc2c(Oc3ccc(NC(=O)C4(C(=O)Nc5ccc(F)cc5)CC4)cc3)ccnc2cc1OC [Compound 1, 1-N′-(4-Fluorophenvl)-1-N-[4-[7-methoxy-6-(methylcarbamovl)quinolin-4-yl]oxyphenyl]cyclopropane-1,1-dicarboxamide]
average vessel number (CD31 staining) (MC38 tumor; 30 mg/kg PO qd 5 days, vehicle 26.9): 17.6
presence of tumor microvessels (MC38 tumor; 3, 10, 30 mg/kg PO qd 5 days): Dose-dependent decreases
protein bound ([1]; 10 μM): 97.5%
fraction unbound ([1]; human, plasma, 0.2 and 1 μM): < 0.01
M1/M2 Ratio, Fold Change Relative to DMSO (n = 2) ([2]; 2 uM): 1.3 ± 2.6 and 1.7 (2×) and 1.0 ± 2.6 and 2.2 ± 1.1
M1/M2 Ratio, Fold Change Relative to DMSO (n = 2) ([2]; 4 uM): 3.6 ± 1.2 and 4.1 and 3.3 and 3.7 ± 1.2 and 3.4 ± 1.4
M1/M2 Ratio, Fold Change Relative to DMSO (n = 2) ([2]; 6 uM): 3.5 ± 1.2 and 4.0 and 4.6 and 4.5 ± 1.0 and 4.6 ± 1.7
TGI (%) (SNU-5; 3 mg/kg qd × 14 oral, p-value 0.0052): 54.2%
TGI (%) (SNU-5; 10 mg/kg qd × 14 oral, p-value <0.0001): 94.7%
IC50 (hERG channel): ~4000 nM
Compound 1 Plasma Exposure (MET; 3 mg/kg): 2.44 µM
Compound 1 Plasma Exposure (MET; 10 mg/kg): 9.71 µM
inhibition at 3 mg/kg (MET; [6]): 60%
inhibition at 10 mg/kg (MET; [6]): 82%
bioavailability ([3]; rat, plasma, po, 0.09-0.27 mg/kg, read-out: Oral absolute bioavailability): 62 to 77%
half-life ([3]; rat, plasma, after oral administration, read-out: terminal phase half-life (t1/2, z)): 4.5 to 5.3 h
Tmax ([3]; rat, plasma, single oral dose, read-out: Median time to maximum plasma concentration (Tmax)): 2 to 3 h
clearance ([3]; rat, plasma, single-dose IV 0.09-0.27 mg/kg, read-out: mean plasma clearance (CL) (converted)): 0.39 mL/min/kg
half-life ([3]; rat, plasma, single-dose IV, read-out: mean plasma t1/2, z (converted)): ~9 h
Vd ([3]; rat, plasma, single-dose IV, read-out: mean volume of distribution at steady-state (Vss)): 0.167 L/kg
increase of exposure (Cmax and AUC0-inf) with dose ([3]; single oral doses 0.09-0.27 mg/kg): approximately dose proportionally
EC50 (CYP2C19; [7]): 6210 nM
maximal induction effect (Emax) (CYP2C19; mRNA, 0.1-100 μM): 6 fold
EC50 (CYP2B6; [7]): 5410 nM
maximal induction effect (Emax) (CYP2B6; mRNA, 0.1-100 μM): 17 fold
IC50 [4]: 42.7 nM and 45.1 nM and 44 nM and 96.5 nM and 181 nM
CLint [5]: 0.563 mL/min/g liver
